Laboratory results taken from patent US20180048011A1, “HIGH pH ORGANIC FLOW BATTERY” (President and Fellows of Harvard College, priority 2015, published 2018).
Values joined by “and” are separate entries in the source; they are usually repeats but may differ in a detail not shown here. Equal values may be shown once.

Key:
Format in all cases: physicochemical
[1] = Cyclic voltammetry of FMN and ferrocyanide; conditions: 2 mM, 100 mV/s, glassy carbon electrode
Method: FIG. 5. Cyclic voltammogram of 2 mM FMN (left curve) and ferrocyanide (right curve) scanned at 100 mV/s on glassy carbon electrode; arrows indicate scan direction.
Before and during the test, the electrolytes were purged with UHP nitrogen to remove and then keep out atmospheric oxygen. […] Galvanostatic cycling shown in […]

[2] = Three-electrode cyclic voltammetry of quinones in 1 M KOH (incl. Pourbaix diagram); conditions: for equilibrium cell potential vs. ferro/ferricyanide suggested by cyclic voltammograms: 1 M KOH, 100 mV/s, glassy carbon electrode; for equilibrium potential of couple with ferrocyanide compared with 2,6-DHAQ/ferrocyanide: CV at 100 mV/s on glassy carbon electrode
Method: FIG. 1. Pourbaix diagram of 2,6-DHAQ. […] FIGS. 2a-d. a. Cyclic voltammogram of 2 mM 2,6-DHAQ (left curve) and ferrocyanide (right curve) scanned at 100 mV/s; arrows indicate scan direction. Dotted line represents cyclic voltammogram of 1 M KOH background scanned at 100 mV/s. b and c. Cyclic voltammograms of 2,3,6,7-THAQ (left curve in b) and 1,5-DMAQ (left curve in c), respectively, plotted along ferrocyanide (right curve) scanned at 100 mV/s on glassy carbon electrode.
Electrochemical characterization. A glassy carbon electrode was used for three-electrode cyclic voltammetry tests, except in the electrochemical window tests where graphite foil was used to mimic the condition of porous carbon paper. Rotating-disk electrode (RDE) experiments of 2,6-DHAQ (1 mM) in 1 M KOH solution were performed using a BASi RDE-2 rotating-disk electrode system (FIG. 3a). All tests were carried out using a Gamry Reference 3000 potentiostat, with a Pt counter electrode and an Ag/AgCI reference electrode (equilibrated with 3M NaCI, 213 mV vs. standard hydrogen electrode. A Levich plot was constructed from the RDE data by plotting the mass-transport limited current vs. the square root of the rotation rate (FIG. 3b). The diffusion coefficient of 2,6-DHAQ was calculated for each of three runs from the slope of the line fit to the Levich equation (Bard, A. J. & Faulkner, L. R. Electrochemical Methods: Fundamentals and Applications. (Wiley, 2000)). The kinematic viscosity was taken to be 1.08×10^−6 m^2 s^-1 (Hitchcock, L. B. & Mcllhenny, J. S. Ind. Eng. Chem. 27, 461-466 (1935)). The resulting value of the diffusion coefficient is 4.8(2) x 10^-6 cm^2 s^-1.

[3] = Chemical and electrochemical stability by proton NMR; conditions: sensitivity level of 1%; after 30 days in 5 M KOH at 100° C. and after 100 charge-discharge cycles (FIGS. 15a-c)
Method: FIGS. 15a-15c. Chemical and electrochemical stability of 2,6-DHAQ. ^1H NMR (500 MHz, DMSO-d6) spectra. a. 2,6-DHAQ 6: 8.04 (d, 2H, J═8.3 Hz, 2 x ArCH), 7.47 (d, 2H, J═2.5 Hz, 2 x ArCH), 7.19 (dd, 2H, J═8.3, 2.5 Hz, 2 x ArCH). b. 2,6-DHAQ, after 30 days heating in 5 M KOH solution at 100° C. c. 2,6-DHAQ, after 100 charge-discharge cycles.
The cell was cycled at a constant current density of ±0.1 A cm^-2 for 100 cycles (FIG. 14a). […] A 0.1% loss in capacity per cycle was observed during cycling, which appears to be a continuous loss of electro-active species over the 100 cycles (FIG. 14b). We explored three possible loss mechanisms: chemical decomposition, electrolyte crossover through the membrane, and leakage from the pumping system. […] This observation places an upper limit on crossover of 0.8% of the DHAQ, implying a crossover current density of <2.5 μA cm^-2 (FIGS. 16a and 16b). […] A source of leakage was readily apparent but not quantifiable at the exit of the humidified nitrogen bubbling through the negolyte to prevent energy loss by permeation of atmospheric oxygen. Coloration could also be found on the gaskets, indicating a likely site of electrolyte leakage (FIGS. 17a and 17b).

[4] = Crossover study: CV of ferro-ferricyanide posolyte after 100 charge-discharge cycles; conditions: for fraction of 2,6-DHAQ crossed over the membrane into the posolyte: Nafion membrane
Method: FIGS. 16a-16b. Test of electrolyte permeation through membrane. Full (a) and zoomed in (b) cyclic voltammograms of 0.4 M ferro-ferricyanide electrolyte after 100 charge-discharge cycles. Same posolyte to which was added 3.9 mM 2,6-DHAQ, and 7.6 mM 2,6-DHAQ.
Crossover study. The concentration of crossed-over 2,6-DHAQ into the ferro-ferricyanide posolyte solution was evaluated using CV. After 100 charge-discharge cycles, the ferro-ferricyanide posolyte solution (5 mL) was collected and analyzed by CV (scan at 100 mV/s. The correlation between the CV signal and 2,6-DHAQ concentration was established by titrating known amounts of 2,6-DHAQ (12 mg or […]) to the cycled posolyte followed by controlled dilution. The comparison indicates <10 mM 2,6-DHAQ had crossed over into the posolyte, which corresponds to <2% of the 2,6-DHAQ originally assembled into the negolyte.

[5] = Solubility measurement by UV-Vis absorbance at 413 nm; conditions: 1 M KOH solution, pH 14, aqueous buffer, thermodynamic from solid; room temperature, in 1 M KOH
Method: Solubility measurement. Room temperature solubility in 1 M KOH solution was measured by measuring the absorbance at 413 nm and comparing to an absorbance-vs.-concentration calibration curve determined by preparing known concentrations of 2,6-DHAQ. UV-Vis spectrophotometry measurements were performed using an Agilent Cary 60 spectrophotometer equipped with a Quantum
Northwest T2 temperature regulator. Appropriate aliquots of 2,6-DHAQ stock solution were added to 1 M KOH blank solution and their UV-Vis absorbance spectra measured. A saturated solution of 2,6-DHAQ in 1 M KOH was prepared by adding 2,6-DHAQ potassium salt into 1 M KOH solution (10 mL) until a thin layer of precipitate formed, the remaining solution was diluted by known proportions, and the absorbance of the resulting solution was compared to the calibration curve.

[6] = Rotating-disk electrode study / Levich plot; conditions: 1 mM in 1 M KOH, Levich equation, three runs
Method: FIGS. 3a-3d. a. Rotating disk electrode study of the reduction of a 1 mM solution of 2,6-DHAQ in 1 M KOH on a glassy carbon electrode at various rotation rates (curves from top to bottom in legend). b. Levich plot of 1 mM 2,6-DHAQ in 1 M KOH. Data are an average of the current at -1.187 V vs. SHE for each of three runs; error bars indicate the standard deviation. c. Cyclic voltammogram of 1 mM 2,6-DHAQ in 1 M KOH (solid line). Dashed lines represent simulated cyclic voltammograms of a two-electron reduction of varying electrochemical rate constant ko and a reduction potential Eo of -0.684 V vs. SHE. The simulations assumed a ═0.5. The scan rate in all cases was 25 mV s^-1. d. […]
Electrochemical characterization. […] All tests were carried out using a Gamry Reference 3000 potentiostat, with a Pt counter electrode and an Ag/AgCI reference electrode (equilibrated with 3M NaCI, 213 mV vs. standard hydrogen electrode. A Levich plot was constructed from the RDE data by plotting the mass-transport limited current vs. the square root of the rotation rate (FIG. 3b). The diffusion coefficient of 2,6-DHAQ was calculated for each of three runs from the slope of the line fit to the Levich equation (Bard, A. J. & Faulkner, L. R. Electrochemical Methods: Fundamentals and Applications. (Wiley, 2000)). The kinematic viscosity was taken to be 1.08×10^−6 m^2 s^-1 (Hitchcock, L. B. & Mcllhenny, J. S. Ind. […]

[7] = Cyclic voltammogram modeling (simulated fit to measured CV)
Method: FIGS. 3a-3d. a. Rotating disk electrode study of the reduction of a 1 mM solution of 2,6-DHAQ in 1 M KOH on a glassy carbon electrode at various rotation rates (curves from top to bottom in legend). b. Levich plot of 1 mM 2,6-DHAQ in 1 M KOH. Data are an average of the current at -1.187 V vs. SHE for each of three runs; error bars indicate the standard deviation. c. Cyclic voltammogram of 1 mM 2,6-DHAQ in 1 M KOH (solid line). Dashed lines represent simulated cyclic voltammograms of a two-electron reduction of varying electrochemical rate constant ko and a reduction potential Eo of -0.684 V vs. SHE. The simulations assumed a ═0.5. The scan rate in all cases was 25 mV s^-1. d. Cyclic voltammogram of 1 mM 2,6-DHAQ in 1 M KOH (solid line). Dashed lines represent the simulated components of two successive one-electron reductions with reduction potentials of -0.657 V vs. SHE and -0.717 V vs. SHE, respectively, as well as the simulated total current arising from such a reaction. Each simulated reduction has a rate constant ko ═7 x 10^-3 cm 5^-1. The simulations assumed a ═0.5.
Cyclic voltammogram modeling. Computation was performed using Mathematica 10.0.1.0 according to algorithms by Oldham and Myland (Oldham, K. B. & Myland, J. C. Electrochim. Acta 56, 10612-10625 (2011)). The diffusivity of 2,6-DHAQ and both the one-electron and two-electron reduction products were assumed to be 4.8 x 10^-6 cm^2 s^-1, based on our RDE studies. The temperature was 293 K. Time was discretized into 40 ms increments, and the current at each time was computed based on the sum of previous currents as described by Oldham (Oldham, K. B. & Myland, J. C. Electrochim. Acta 56, 10612-10625 (2011)).
To model the two-electron reduction process (FIG. 1), the Butler-Volmer equation with the number of electrons n ═2 was used in place of Oldham equation (4:5), and the right-hand-side of equation (8:3) was multiplied by 2 to account for a two-electron reduction (Bard, A. J. & Faulkner, L. R. Electrochemical Methods: Fundamentals and Applications. (Wiley, 2000); Oldham, K. B. & Myland, J. C. Electrochim. Acta 56, 10612-10625 (2011)). The reduction potential was assumed to be equal to the voltage equidistant from the two peaks on the measured cyclic voltammogram (-0.684 V vs. SHE) and the charge transfer coefficient a was assumed to be 0.5. The electrochemical rate constant ko was then varied from 10^-3 cm s^-1 to 10^-5 cm s^-1.
To model the two successive one-electron reductions (FIG. 3d), Oldham equations (12:13) and (12:14) were used (Oldham, K. B. & Myland, J. C. Electrochim. Acta 56, 10612-10625 (2011)). The charge transfer coefficients al and a2 were assumed to be equal to 0.5, and the electrochemical rate constants for the two reductions were assumed equal. The values of the single rate constant and the first and second reduction potentials were permitted to vary freely. A reasonable fit to the experimental data was observed when the reduction potential of the first reduction Ei ═-0.657 V vs. SHE, the reduction potential of the second reduction E2 ═-0.717 V vs. SHE, and the two electrochemical rate constants ko,i and ko,2 both equaled 7×10^−3 cm s^-1, a value very close to that observed in other anthraquinone systems (Huskinson, B. et al. Nature 505, 195-198 (2014)).

[8] = after 100 charge-discharge cycles
[9] = 1 mM in 1 M KOH, simulated fit, two successive one-electron reductions

## Cc1cc2nc3c(=O)[nH]c(=O)nc-3n(C[C@@H](O)[C@@H](O)[C@@H](O)COP(=O)(O)O)c2cc1C [FMN, riboflavin 5′ phosphate]
[1]
  overall peak separation of cyclic voltammograms vs. ferrocyanide: 1 V

## Cc1c(O)ccc2c1C(=O)c1ccc(O)c(C)c1C2=O [1,5-DMAQ, 1,5-dimethyl-2,6-dihydroxy-9,10-anthraquinone]
[2]
  equilibrium cell potential vs. ferro/ferricyanide suggested by cyclic voltammograms: ~1.35 V
  equilibrium potential of couple with ferrocyanide compared with 2,6-DHAQ/ferrocyanide: higher equilibrium potential than 2,6-DHAQ/ferrocyanide

## O=C1c2ccc(O)cc2C(=O)c2ccc(O)cc21 [2,6-DHAQ, 2,6-dihydroxy-9,10-anthraquinone]
[3]
  decomposition by proton NMR: no decomposition product
[4]; [8]
  concentration of 2,6-DHAQ crossed over into the posolyte: < 10000 µM
  fraction of 2,6-DHAQ crossed over the membrane into the posolyte: < 1% and < 2%
[4]; after 100 charge-discharge cycles, listed as DHAQ
  fraction of 2,6-DHAQ crossed over the membrane into the posolyte: ≤ 0.8%
[4]; implied by crossover upper limit
  crossover current density: < 2.5 μA cm^-2
[5]
  solubility: > 600 mM
[2]
  equilibrium cell potential vs. ferro/ferricyanide suggested by cyclic voltammograms: 1.2 V
[6]
  diffusion coefficient: 4.8(2) x 10^-6 cm^2 s^-1
[7]; 1 mM in 1 M KOH, two-electron reduction model
  reduction potential E0 (voltage equidistant from the two CV peaks): -0.684 V vs. SHE
[7]; [9]
  reduction potential of the first one-electron reduction: -0.657 V vs. SHE
  reduction potential of the second one-electron reduction: -0.717 V vs. SHE
[7]; FIG. 3d legend, simulated fit
  rate constant ko of each simulated reduction: 7 x 10^-3 cm 5^-1
[7]; pH 14
  separation of the potentials of the two one-electron reductions: 0.06 V
[7]; simulated fit, charge transfer coefficient 0.5
  electrochemical rate constant k0 (both reductions): 0.007 cm/s

## O=C1c2cc(O)c(O)cc2C(=O)c2cc(O)c(O)cc21 [2,3,6,7-THAQ, 2,3,6,7-tetrahydroxy-9,10-anthraquinone]
[2]
  equilibrium cell potential vs. ferro/ferricyanide suggested by cyclic voltammograms: ~1.35 V
  equilibrium potential of couple with ferrocyanide compared with 2,6-DHAQ/ferrocyanide: higher equilibrium potential than 2,6-DHAQ/ferrocyanide
